Consider 7 molecules from paper PMC12635197, “Discovery of first-in-class inhibitors of the TRF1:TIN2 protein:protein interaction by fragment screening” (Scientific Reports, 2025).

Series [1] can be described thus: Fragment solubility assay (quantitative 1H NMR). Conditions: Supplementary Table 1. The class given is physicochemical. On the procedure: Aqueous solubility test samples were prepared by adding 3.6 µL compound (50 mM stock in 100% DMSO-d6) to 176.4 µL NMR buffer in a microcentrifuge tube. The samples were incubated overnight and transferred to a 3-mm NMR tube (Bruker, Part No. Z112272). ^1H NMR spectra were recorded, with the DMSO and water signals dampened. 1 mM caffeine (Sigma, C1778 in PBS (pH 7.4) with 1% DMSO-d6) was used as a standard to quantify the ligand signals and determine the concentration of samples.
NMR data were collected on a Bruker Avance Neo 600-MHz spectrometer equipped with a 5 mm TCI-CryoProbe. The ^1H spectrum was referenced to the internal deuterated solvent. The operating frequency for ^1H was 600 MHz. All NMR data were acquired at the temperature of 298 K. All data were acquired and processed using Bruker Topspin 4.0. The quantitative ^1H-NMR spectrum was acquired using a Bruker standard 1D lc1pngppsf2 pulse sequence with 32 scans. The sweep width was 6.2 ppm with O1P set to 8.8 ppm, and the FID contained 16k time-domain data points. Relaxation delay was set to 20 s. Water signal was suppressed.

Series [2] deals with T1, TRF1TRFH (Homo sapiens, UniProt P54274).
T1 construct: encoding residues 47–268, UniProt identifier P54274-1; His6-MBP (TEV-cleavable) (N, cleaved yes); made in house; host or cells: E. coli BL21-CodonPlus(DE3)-RIL
T1 sequence (P54274 47-268): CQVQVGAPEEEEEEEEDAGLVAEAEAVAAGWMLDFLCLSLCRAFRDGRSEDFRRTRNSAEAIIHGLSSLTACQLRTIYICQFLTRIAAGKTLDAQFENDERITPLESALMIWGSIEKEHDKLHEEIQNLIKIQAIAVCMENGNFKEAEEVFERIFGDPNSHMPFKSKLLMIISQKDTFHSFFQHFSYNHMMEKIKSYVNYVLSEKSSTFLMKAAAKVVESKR
The experiment in a line: LO-NMR CPMG assay (relaxation-edited), singletons. The class given is binding. Conditions: single experiment; for CPMG reduction: average peak intensity reduction on addition of TRF1TRFH, 250 µM ligand, 20 µM protein; for CPMG recovery: net recovery of peak intensity on addition of TIN2TBM peptide (40 µM) to compound plus protein. The protocol:
We next used a LO-NMR CPMG assay to orthogonally validate XChem hits in solution, aiming to eliminate false positives and rank hit matter for follow-up studies. Compounds were tested as singletons and prepared in two samples containing either compound alone (sample 1) or compound + TRF1TRFH (sample 2).
The fragment screen by LO-NMR was carried out using conditions described previously, with some modifications. Fragments were dispensed in triplicate into a 384-well plate using an Echo 550 liquid handler to give a final ligand concentration of 250 µM (total sample volume of 40 µL). 40 µL of TRF1TRFH protein (in NMR buffer; 20 µM final protein concentration in the assay) were added to the ‘protein’ samples; 40 µL of TRF1TRFH protein and TIN2TBM peptide (21-mer, Ac-[…]-CONH2; 40 µM final concentration in the assay) were both added to the ‘competitor’ samples; 40 µL NMR buffer were added to the ‘compound-only’ samples. Solutions were transferred to 1.7-mm NMR tubes using a Bruker SamplePro Tube robotics system. ^1H NMR spectra were recorded on a Bruker AVIII 500 MHz spectrometer at 298 K, equipped with a 1.7-mm TXI probe, with samples in 1.7-mm SampleJET NMR tubes (Bruker). DMSO and water signals were dampened. A relaxation spin filter was applied at 400 ms. Data were processed using Bruker Topspin 4.0. Lines were broadened with LB = 3.0, and the baseline was corrected between 6.0 and 10.0 ppm.
The data were then analysed using the MNova Screen software. Only peaks between 5.5 and 9.5 ppm were considered. Peaks with a height of < 5% maximum peak height within the region of interest were considered noise, and the minimum matched peak level was set at > 51%. The relative peak intensity change (I) was calculated for all peaks in the 5.5–9.5 ppm region, for each compound, as described previously. The average integral for all peaks between 6.0 and 10.0 ppm was calculated, and the differences between compound-only, compound-plus-protein, and compound-plus-protein-plus-competitor samples were compared. The net recovery was calculated by subtracting the reduction in peak integral of the compound-plus-protein samples from the compound-plus-protein-plus-competitor samples.
For hit validation, relaxation-edited LO-NMR experiments were repeated as described above on single compounds instead of fragment cocktails.

The target in series [3] is T1, TRF1TRFH. As to the kind of experiment: Crystal soaking of TRF1TRFH crystals. To be noted: soaking into TRF1TRFH crystals; Supplementary Table 1. An excerpt: Attempts to soak TRF1TRFH crystals with the commercially available analogues of the XChem hit 5 were also unsuccessful. Only one slightly smaller analogue (22) could be soaked into TRF1TRFH crystals, albeit with an ambiguous binding mode. […] In the case of compound 5, we observed a hydrogen bond between the amino group of the fragment and a backbone carbonyl in the neighbouring protein chain (Fig. 2i). […] Additionally, the pocket normally occupied by the conserved phenylalanine residue of the TIN2 F-X-L-X-P motif was fully obstructed by a crystal contact with a TRF1TRFH copy in an adjacent asymmetric unit, further limiting the possibility of obtaining XChem hits outside of the leucine pocket.
TRF1TRFH crystals in the P3_121 space group were grown by sitting drop vapour diffusion in SWISSCI 3-drop plates using similar crystallisation conditions to those described previously. The total drop volume was 300 nL, consisting of 150 nL of TRF1TRFH (31.2 mg/mL) and 150 nL of reservoir solution (1% PEG8000, 100 mM MES pH 6.0, 1–12 mM Mg(OAc)2, 10–15% glycerol), whilst the reservoir volume was 35 µL. Crystallisation plates were set up using an SPT Labtech mosquito Xtal2 liquid handler. Cuboid-shaped crystals grew to their maximum size (300 μm across) within 24 h. Crystals were cryoprotected through the addition of 180 nL of 40% glycerol to the crystal drop prior to harvesting, giving a final glycerol concentration of […] (accounting for the glycerol already in the crystallisation conditions). The crystals were then flash-frozen in liquid nitrogen, and data were collected at the Diamond Light Source beamlines I04 and I04-1 and processed automatically using the Xia2 Dials pipeline[53],[54]. The TRF1TRFH structure was solved by molecular replacement in Phaser MR[55] within CCP4[56] using the previously published TRF1TRFH structure as a search model (PDB: 1H6O)[31], after having first stripped the search model of solvent molecules and ligands. Structure refinement was done using Refmac[57] and Buster[36], and model correction and building was done using Coot 0.9.6[35].
The DSi-Poised library (768 fragment, Enamine)[32], the EUbOPEN DSiP extension library (108 fragments) and the FragLite library (31 fragments)[33] were screened against TRF1TRFH crystals. Compounds at 500 mM in DMSO stocks were dispensed into selected crystal drops as singletons using an Echo 550 liquid handler to give a final concentration of 50 mM (10% DMSO final concentration). After incubation for 1 h at 20 °C, 180 nL of glycerol (40% stock, final drop concentration 28.8–32.5%) were added to each drop immediately prior to crystal harvesting and flash-freezing in liquid nitrogen.
Data were collected on the I04-1 beamline at Diamond Light Source. […]

The next series has as its target TIN2 TBM (Homo sapiens) (UniProt Q9BSI4). To be noted: cited from earlier work.
Series [4] addresses T2, TRFH domain of TRF1 (TRF1_(TRFH)), residues 47–268 (human, UniProt P54274-1 47-268).
T2 construct: cDNA codon-optimised for E. coli; also called TRF homology (TRFH) domain; source: E. coli BL21-CodonPlus(DE3)-RIL, purified (HisTrap, TEV cleavage, second HisTrap, Superdex 200 SEC); not shown: His6, N-terminal, cleaved; MBP, N-terminal, cleaved
T2 sequence (looked up): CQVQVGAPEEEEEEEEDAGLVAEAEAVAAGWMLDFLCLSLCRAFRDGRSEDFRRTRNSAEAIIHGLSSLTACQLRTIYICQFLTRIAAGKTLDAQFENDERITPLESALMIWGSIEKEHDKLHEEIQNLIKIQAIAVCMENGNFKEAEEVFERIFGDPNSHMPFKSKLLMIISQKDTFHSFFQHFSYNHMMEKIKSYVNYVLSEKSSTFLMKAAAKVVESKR
As to the kind of experiment: fluorescence polarisation; direct titration: TRF1_(TRFH) 20 to 0.02 µM (11 points) against 25 nM TIN2-FAM; 25 mM HEPES-NaOH pH 7.5, 100 mM NaCl, 1 mM TCEP, 0.05% w/v CHAPS; 1 h at room temperature. To be noted: both partners purified. For orientation: In fluorescence polarisation assays a small probe gives low polarisation when free and higher when bound to something large.

In series [5] the target is T3, (StrepII)2-TEV-tagged TIN2, subunit of recombinant shelterin (UniProt Q9BSI4-1 1-451).
T3 construct: TIN2, gene NM_001099274.1, codon-optimised; a TEV site lies between tag and protein; The separately made control protein is called TIN2L; The discussion says that the complex carries a short peptidic tag on TIN2; source: Sf9, co-expressed with the other shelterin subunits (MultiBac baculovirus), purified (StrepTrap, serial SEC)
T3 sequence (looked up): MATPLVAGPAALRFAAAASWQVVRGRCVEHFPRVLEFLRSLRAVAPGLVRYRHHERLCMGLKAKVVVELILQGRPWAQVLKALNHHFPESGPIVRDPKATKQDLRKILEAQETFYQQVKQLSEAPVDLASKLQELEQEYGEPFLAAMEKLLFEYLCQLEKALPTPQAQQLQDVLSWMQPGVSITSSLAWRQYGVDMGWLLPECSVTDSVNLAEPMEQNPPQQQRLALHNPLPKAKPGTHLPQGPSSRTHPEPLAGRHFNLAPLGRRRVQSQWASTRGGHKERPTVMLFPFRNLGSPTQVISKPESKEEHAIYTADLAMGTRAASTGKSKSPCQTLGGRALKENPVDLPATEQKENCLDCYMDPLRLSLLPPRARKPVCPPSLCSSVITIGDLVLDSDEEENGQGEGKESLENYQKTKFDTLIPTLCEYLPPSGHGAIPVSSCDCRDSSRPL
As to the kind of experiment: mass photometry; SEC-purified shelterin without compound; complex of around 700 kDa; 50 mM HEPES-NaOH pH 8.0, 300 mM NaCl. To be noted: both partners purified.

Series [6] addresses T4, TRF1 (telomeric repeat-binding factor 1), full length, subunit of recombinant shelterin (human), P54274.
T4 chain: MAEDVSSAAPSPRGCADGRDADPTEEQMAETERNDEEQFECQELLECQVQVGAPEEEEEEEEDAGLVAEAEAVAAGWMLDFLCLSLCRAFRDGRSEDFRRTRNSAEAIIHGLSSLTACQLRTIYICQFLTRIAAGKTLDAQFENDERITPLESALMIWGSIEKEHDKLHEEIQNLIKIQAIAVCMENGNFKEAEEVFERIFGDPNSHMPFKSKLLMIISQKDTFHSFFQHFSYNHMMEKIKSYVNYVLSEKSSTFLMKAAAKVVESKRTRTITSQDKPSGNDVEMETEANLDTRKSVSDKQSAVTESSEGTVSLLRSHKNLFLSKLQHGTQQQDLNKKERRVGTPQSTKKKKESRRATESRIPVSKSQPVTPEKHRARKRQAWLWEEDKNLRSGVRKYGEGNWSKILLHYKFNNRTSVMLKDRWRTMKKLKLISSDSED
The experiment in a line: mass photometry; SEC-purified shelterin 1.25 µM incubated 1 h at room temperature with 100-300 µM compound 40, cross-linked with 0.1% glutaraldehyde, diluted to 50 nM. To be noted: remark: other sources report otherwise.

Series [7] has as its target T2, TRFH domain of TRF1 (TRF1_(TRFH)), …. The experiment in a line: ligand-observed NMR (CPMG / R2 relaxation) competition; fragment 250 µM with 20 µM TRF1_(TRFH), with or without 40 µM TIN2TBM peptide as competitor; NMR buffer; 298 K. To be noted: both partners purified.

Where no end group is shown, it is not given here. FAM = 5(6)-carboxyfluorescein

As to `COc1cc2nc(N)sc2cc1OC` [Compound 21], in series [1], the “Aq. Sol.” value was 190 µM. On TRF1TRFH [2], the CPMG reduction came out at 14% and the CPMG recovery is recorded as 12%. For the same molecule, on TRF1TRFH [3], the Crystal structure result was “No”.
On the same counts, the results for `COc1ccc2sc(C)nc2c1` [Compound 22] are 790 µM, 18%, 9% and “Yes”.
Take `Nc1nc2cc3c(cc2s1)OCO3` [Compound 24]: the “Aq. Sol.” value in series [1] is reported as 400 µM. Moreover, on TRF1TRFH [2], the CPMG reduction is 28% and the CPMG recovery came out at 11%. The Crystal structure entry at TRF1TRFH [3] was “No”.
The term Kd denotes the free concentration of one partner at which half of the binding sites on the other are occupied at equilibrium, for simple one-to-one binding. For the molecule TRF1 TRFH (from UniProt P54274), the Kd with TIN2 TBM (Homo sapiens) is 300 nM.
Regarding {FAM}-RHFNLAPLGRRRVQSQWASTR [TIN2TBM peptide labelled with an N-terminal 5(6)-carboxyfluorescein (TIN2-FAM)], the affinity in series [4], expressed as Kd, was 400 nM.

B1: TRF1 (telomeric repeat-binding factor 1), full length, subunit of recombinant shelterin (natural protein, human, UniProt P54274-1 1-439, looked up)
chain: MAEDVSSAAPSPRGCADGRDADPTEEQMAETERNDEEQFECQELLECQVQVGAPEEEEEEEEDAGLVAEAEAVAAGWMLDFLCLSLCRAFRDGRSEDFRRTRNSAEAIIHGLSSLTACQLRTIYICQFLTRIAAGKTLDAQFENDERITPLESALMIWGSIEKEHDKLHEEIQNLIKIQAIAVCMENGNFKEAEEVFERIFGDPNSHMPFKSKLLMIISQKDTFHSFFQHFSYNHMMEKIKSYVNYVLSEKSSTFLMKAAAKVVESKRTRTITSQDKPSGNDVEMETEANLDTRKSVSDKQSAVTESSEGTVSLLRSHKNLFLSKLQHGTQQQDLNKKERRVGTPQSTKKKKESRRATESRIPVSKSQPVTPEKHRARKRQAWLWEEDKNLRSGVRKYGEGNWSKILLHYKFNNRTSVMLKDRWRTMKKLKLISSDSED
notes: TRF1, gene NM_017489.2, codon-optimised; the UniProt identifier is printed for the TRFH construct of the same protein; Further details of the shelterin construct 'to be reported elsewhere'; also called full-length TRF1
Usually stoichiometry N stands for the number of molecules, sites or subunits per partner or assembly. As for B1, the “stoichiometry N” value in series [5] is 2 TRF1 per TIN2; in series [6], 2.

B2: TIN2TBM peptide (21-mer, Ac-RHFNLAPLGRRRVQSQWASTR-CONH2) (peptide)
peptide: Ac-RHFNLAPLGRRRVQSQWASTR-NH2
notes: limits worked out from L260 of the F-X-L-X-P motif
With B2, the binding result in series [7] was “binds”.
